Measured values from PubChem BioAssay (NCI).
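Cultured in 96-well plates, cells were exposed to test compound for 48 hours across five concentrations. At the GI50, growth is halved. TGI is the concentration that stops growth completely.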

These molecules were tested on 786-0 renal (assay: inhibition of tumour cell growth, NCI panel, 48 h).

Structure (SMILES) | TGI | GI50
Cc1ccc(C(=O)/C=C/c2ccccc2O)c(C)c1 | > 100 µM | –
O=S(O)CCCCSSCCCCSSCCCCS(=O)O | > 100 µM | –
COc1cc2c(/C=C3/C(=O)Nc4cccc(Cl)c43)c(Cl)n(Cc3ccccc3)c2cc1C | 26.7 µM | 3.59 µM
CC(=O)SCCC1c2[nH]c3ccccc3c2CCN1O (stereo unspecified) | > 100 µM | –
CCOC(=O)NC(=O)c1cn(CCCOC(=O)NCCCCCCNC(=O)OCCCn2c(=O)c(C(=O)NC(=O)OCC)cn(C)c2=O)c(=O)n(C)c1=O | > 100 µM | –
COc1ccc2cc(C(=O)/C=C/c3cccc(OC)c3OC)ccc2c1 | 16.6 µM | 4.26 µM
CCCCn1c(-c2ccc(C(=O)O/N=C(\N)c3ccc(OC)cc3)cc2)nc(-c2ccccc2)c1-c1ccccc1 | 1.91 µM | 0.538 µM
O=C1C2=C(CC3C(C2)C3(Br)Br)C(=O)C2=C1CC1C(C2)C1(Br)Br (stereo unspecified) | > 100 µM | –
CC(C)=CC(=O)N1CCN(C(=O)C=C(C)C)CC1 | > 100 µM | –
CCCCC/C=C/C/C=C/CCCCCCCC1=NC(C)(C)CN1C(C)C | 5.12 µM | 2.24 µM
CCc1cccc(C)c1NC(C)=O | > 100 µM | –
O=C(CC(=O)N1N=C(c2ccccc2)C(N=Nc2ccc(Cl)cc2)C1=O)Nc1ccccc1Cl (stereo unspecified) | 26 µM | –

What follows are molecules tested on SNB-75 CNS (assay: inhibition of tumour cell growth, NCI panel, 48 h).

Structure (SMILES) | TGI | GI50
CCN(CC)C(=O)C/C(C)=N/NC(=O)c1ccncc1 | > 100 µM | –
Cc1ccc(N=NC(C(=O)c2ccccc2)C(=O)c2ccccc2)cc1 | 93.4 µM | –
Cc1ccc(NC(=O)C2C(=O)N(c3ccc(C)c(C)c3)C(=O)/C2=N/O)cc1C (stereo unspecified) | > 100 µM | –
Nc1c(-c2ccc(Br)cc2)[n+]([O-])c2ccccc2[n+]1[O-] | > 100 µM | –
CCCCNC(=O)NS(=O)(=O)c1ccc(N2N=C(c3ccc(C)cc3C)CC2c2ccc(N(C)C)cc2)cc1 (stereo unspecified) | > 100 µM | 3.81 µM
C#CC[C@]12CC(=O)CC[C@H]1CC(=O)C2 | > 100 µM | –
CNC=O.[O]=[Ge].[O]=[Ge].[O]=[Ge].[O]=[Ge][OH].[O]=[Ge][OH] | > 100 µM | –
CCOC(=O)c1c(C)n(Cc2ccc(OC)cc2)c2c1cc(O)c1[nH]c3c(c12)CCCC3 | > 100 µM | 4.77 µM
N#CCCN(c1ccc(/C=C2\N=C(c3ccc(Cl)cc3)OC2=O)cc1)S(=O)(=O)c1ccccc1 | > 100 µM | –
Cc1cc(NS(=O)(=O)c2ccc(NC(=O)c3cccc4c(=O)c5ccccc5[nH]c34)cc2)no1 | 85.4 µM | –
O=C(/C=C/c1ccccc1Cl)c1ccccc1Cl | 74.9 µM | –
COc1cc([N+](=O)[O-])ccc1NC(=O)C(F)(F)F | > 100 µM | –
COc1cc(-c2c(C#N)c(N)n3c(nc4ccccc43)c2C#N)cc(Br)c1OC | 9.98 µM | 2.18 µM
N#CCCN(CCC#N)c1ccc(/C=C2\N=C(CN3C(=O)c4ccccc4C3=O)OC2=O)cc1 | > 100 µM | –
N#C/C(C(=S)Nc1ccccc1)=C1/NN=C2c3ccccc3C(=O)NN21 | 43.5 µM | 16.6 µM
CSc1nc(NC2OC(COC(C)=O)C(OC(C)=O)C(OC(C)=O)C2OC(C)=O)c2c(OC(C)=O)c(C)c(=O)oc2n1 (stereo unspecified) | > 100 µM | –
CC#CC(=O)Nc1ccccc1CC(c1c[nH]c2ccccc12)c1c[nH]c2ccccc12 | 38.8 µM | –

Structure (SMILES) | TGI | GI50
COC(=O)C(=O)C(C(=O)C=C(C)C)C(=O)C(=O)Nc1ccc(Cl)cc1C (stereo unspecified) | > 100 µM | –
CC(=O)[O][Hg][c]1c(C)c(C)c(C)c(C)c1C | 3.33 µM | 1.75 µM
C[C@]12CC[C@@H]3c4ccc(Oc5nc(N6CC6)nc(N6CC6)n5)cc4CC[C@H]3[C@@H]1CCC2=O | 14.9 µM | 2.55 µM
Cc1cccc(C(C)(C)C)c1NC(=O)CCc1n[nH]c(=S)o1 | > 100 µM | –
Cc1ccc(C(=O)/C=C/c2ccccc2O)c(C)c1 | 8.01 µM | –
O=S(O)CCCCSSCCCCSSCCCCS(=O)O | > 100 µM | –
COc1cc2c(/C=C3/C(=O)Nc4cccc(Cl)c43)c(Cl)n(Cc3ccccc3)c2cc1C | > 100 µM | 21.1 µM
CC(=O)SCCC1c2[nH]c3ccccc3c2CCN1O (stereo unspecified) | 86.4 µM | –
CCOC(=O)NC(=O)c1cn(CCCOC(=O)NCCCCCCNC(=O)OCCCn2c(=O)c(C(=O)NC(=O)OCC)cn(C)c2=O)c(=O)n(C)c1=O | 93.9 µM | –
COc1ccc2cc(C(=O)/C=C/c3cccc(OC)c3OC)ccc2c1 | 35.6 µM | 18.5 µM
CCCCn1c(-c2ccc(C(=O)O/N=C(\N)c3ccc(OC)cc3)cc2)nc(-c2ccccc2)c1-c1ccccc1 | 3.05 µM | 1.36 µM
O=C1C2=C(CC3C(C2)C3(Br)Br)C(=O)C2=C1CC1C(C2)C1(Br)Br (stereo unspecified) | > 100 µM | –
CC(C)=CC(=O)N1CCN(C(=O)C=C(C)C)CC1 | > 100 µM | –
CCCCC/C=C/C/C=C/CCCCCCCC1=NC(C)(C)CN1C(C)C | 2.87 µM | 1.44 µM
CCc1cccc(C)c1NC(C)=O | > 100 µM | –
O=C(CC(=O)N1N=C(c2ccccc2)C(N=Nc2ccc(Cl)cc2)C1=O)Nc1ccccc1Cl (stereo unspecified) | 41.3 µM | –

The molecules below were run on U251 CNS (assay: inhibition of tumour cell growth, NCI panel, 48 h).

Structure (SMILES) | GI50 | TGI
CC(C)(C)OC(=O)N(CCCN(CCn1c2c(c3ccccc3c1=O)C(=O)c1ccccc1-2)C(=O)OC(C)(C)C)CCn1c2c(c3ccccc3c1=O)C(=O)c1ccccc1-2 | 15.2 µM | > 50 µM
CCN(CC)C(=O)C/C(C)=N/NC(=O)c1ccncc1 | – | > 100 µM
Cc1c2c(nn1-c1ccc(S(=O)(=O)/N=C3\SCC(=O)N3C(=O)c3ccccc3)cc1)-c1ccccc1CC2 | 23.3 µM | 62.4 µM
Cc1ccc(N=NC(C(=O)c2ccccc2)C(=O)c2ccccc2)cc1 | – | > 100 µM
Cc1ccc(NC(=O)C2C(=O)N(c3ccc(C)c(C)c3)C(=O)/C2=N/O)cc1C (stereo unspecified) | – | > 100 µM
Nc1c(-c2ccc(Br)cc2)[n+]([O-])c2ccccc2[n+]1[O-] | – | > 100 µM
CCCCNC(=O)NS(=O)(=O)c1ccc(N2N=C(c3ccc(C)cc3C)CC2c2ccc(N(C)C)cc2)cc1 (stereo unspecified) | 3.59 µM | 27.6 µM
C#CC[C@]12CC(=O)CC[C@H]1CC(=O)C2 | – | > 100 µM
CCOC(=O)c1c(C)n(Cc2ccc(OC)cc2)c2c1cc(O)c1[nH]c3c(c12)CCCC3 | 2.31 µM | 5.89 µM
N#CCCN(c1ccc(/C=C2\N=C(c3ccc(Cl)cc3)OC2=O)cc1)S(=O)(=O)c1ccccc1 | – | > 100 µM
Cc1cc(NS(=O)(=O)c2ccc(NC(=O)c3cccc4c(=O)c5ccccc5[nH]c34)cc2)no1 | – | > 100 µM
O=C(/C=C/c1ccccc1Cl)c1ccccc1Cl | – | 30.8 µM
CC(C)=[CH][Sb]([Br])([CH]=C(C)C)([CH]=C(C)C)[CH]=C(C)C | 12.2 µM | 79.3 µM
COc1cc([N+](=O)[O-])ccc1NC(=O)C(F)(F)F | – | > 100 µM
COc1cc(-c2c(C#N)c(N)n3c(nc4ccccc43)c2C#N)cc(Br)c1OC | 4.47 µM | > 100 µM
N#CCCN(CCC#N)c1ccc(/C=C2\N=C(CN3C(=O)c4ccccc4C3=O)OC2=O)cc1 | – | > 100 µM
N#C/C(C(=S)Nc1ccccc1)=C1/NN=C2c3ccccc3C(=O)NN21 | 32.1 µM | > 100 µM

Structure (SMILES) | GI50 | TGI
CSc1nc(NC2OC(COC(C)=O)C(OC(C)=O)C(OC(C)=O)C2OC(C)=O)c2c(OC(C)=O)c(C)c(=O)oc2n1 (stereo unspecified) | – | > 100 µM
COC(=O)C(=O)C(C(=O)C=C(C)C)C(=O)C(=O)Nc1ccc(Cl)cc1C (stereo unspecified) | – | > 100 µM
CC(=O)[O][Hg][c]1c(C)c(C)c(C)c(C)c1C | 0.399 µM | 1.61 µM
C[C@]12CC[C@@H]3c4ccc(Oc5nc(N6CC6)nc(N6CC6)n5)cc4CC[C@H]3[C@@H]1CCC2=O | 2 µM | 11.7 µM
COc1cc(C(=O)O[C@H](C(N)=O)[C@]2(C)CO2)c2ccccc2c1 | 18.6 µM | 35.4 µM
Cc1cccc(C(C)(C)C)c1NC(=O)CCc1n[nH]c(=S)o1 | – | > 100 µM
Cc1ccc(C(=O)/C=C/c2ccccc2O)c(C)c1 | – | > 100 µM
O=S(O)CCCCSSCCCCSSCCCCS(=O)O | – | > 100 µM
COc1cc2c(/C=C3/C(=O)Nc4cccc(Cl)c43)c(Cl)n(Cc3ccccc3)c2cc1C | 2.46 µM | 20.6 µM
CC(=O)SCCC1c2[nH]c3ccccc3c2CCN1O (stereo unspecified) | – | > 100 µM
CCOC(=O)NC(=O)c1cn(CCCOC(=O)NCCCCCCNC(=O)OCCCn2c(=O)c(C(=O)NC(=O)OCC)cn(C)c2=O)c(=O)n(C)c1=O | – | > 100 µM
COc1ccc2cc(C(=O)/C=C/c3cccc(OC)c3OC)ccc2c1 | 7.9 µM | 22 µM
O=C1C2=C(CC3C(C2)C3(Br)Br)C(=O)C2=C1CC1C(C2)C1(Br)Br (stereo unspecified) | – | > 100 µM
CC(C)=CC(=O)N1CCN(C(=O)C=C(C)C)CC1 | – | > 100 µM
CCCCC/C=C/C/C=C/CCCCCCCC1=NC(C)(C)CN1C(C)C | 1.53 µM | 2.87 µM
CCc1cccc(C)c1NC(C)=O | – | > 100 µM
O=C(CC(=O)N1N=C(c2ccccc2)C(N=Nc2ccc(Cl)cc2)C1=O)Nc1ccccc1Cl (stereo unspecified) | – | 71.1 µM
